Results published in patent US20030091557A1, “Methods and compositions for modulating ACE-2 activity” (priority 2001, published 2003).
Where a SMILES comes first, the peptide text is derived from it. Bridges are numbered along the chain shown (N, C = ends).

Molecular target: ACE-2 (Homo sapiens, UniProt Q9BYF1)
Test: Fluorometric ACE-2 inhibition assay with peptide M-2195 as substrate
Type: biochemical
Parameters: nucleotides corresponding to the extracellular domain (M1-S740); FLAG; made in house; host or cells: Sf9 insect cells, recombinant baculovirus (transfer vector pA2); enzyme purified from conditioned media
Conditions: for Ki: ACE-2, M-2195 substrate; for Inhibition: inhibition of ACE-2 activity, M-2195 substrate, class by % inhibition at ~100 μM and IC50
Experimental: Substrate stock (10 μL of 10× concentration) was added to each well to be tested in blocks of three vertically down the plate. The reaction was monitored on a Spectrafluor Plus (Tecan) at an excitation wavelength of 340 nm and an emission wavelength of 400 nm (+/−35 nm) every 30 seconds for a time period of 10 minutes.
ACE-2 cleaves off the C-terminal lysine from the peptide with a concomitant increase in fluorescence signal.
The assays were performed in 96-well clear-bottom black plates (Costar, 07-200-590). In each well, 0.45 μg (5 pmoles) of ACE-2 is added to 90 μL of an assay solution containing 100 mM TRIS at pH 7.4, 0.1% Tween, and 0.4% DMSO. Substrate stock at 10 μL of 10× concentration is added to each well (for example, 10 μL of 1 mM stock for a final 100 μM concentration). The reaction was monitored on a Spectrafluor Plus (Tecan) at an excitation wavelength of 340 nm and an emission wavelength of 400 nm (+/−35 nm) every 30 seconds up to 10 minutes. All samples were measured in triplicate. […]

Chain of ACE-2 (Q9BYF1 18-740): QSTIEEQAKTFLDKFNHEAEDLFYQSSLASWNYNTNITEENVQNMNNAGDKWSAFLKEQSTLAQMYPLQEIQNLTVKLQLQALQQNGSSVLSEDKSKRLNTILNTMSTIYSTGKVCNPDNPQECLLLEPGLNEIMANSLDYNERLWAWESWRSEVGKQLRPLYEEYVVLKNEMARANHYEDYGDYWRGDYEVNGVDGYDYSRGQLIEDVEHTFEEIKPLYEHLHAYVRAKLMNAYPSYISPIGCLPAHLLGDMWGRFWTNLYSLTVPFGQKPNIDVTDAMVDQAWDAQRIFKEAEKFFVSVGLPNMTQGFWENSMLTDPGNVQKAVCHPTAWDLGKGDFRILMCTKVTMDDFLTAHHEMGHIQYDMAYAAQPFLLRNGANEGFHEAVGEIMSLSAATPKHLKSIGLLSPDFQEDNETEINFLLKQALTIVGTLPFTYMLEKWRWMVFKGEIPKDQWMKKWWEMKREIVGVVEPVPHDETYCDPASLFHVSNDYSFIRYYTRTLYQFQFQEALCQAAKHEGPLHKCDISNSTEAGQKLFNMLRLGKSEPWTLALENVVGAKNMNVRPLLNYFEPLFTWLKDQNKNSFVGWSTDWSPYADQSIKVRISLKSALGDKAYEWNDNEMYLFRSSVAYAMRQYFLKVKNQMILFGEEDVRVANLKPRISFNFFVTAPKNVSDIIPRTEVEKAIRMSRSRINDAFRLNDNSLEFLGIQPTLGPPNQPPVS

Compound	Ki [µM]	Inhibition
CSCC[C@@H]1NC(=O)[C@H](Cc2c[nH]c3ccccc23)NC(=O)[C@@H]2CCCN2C(=O)[C@H](CO)NC(=O)[C@H](CCC(N)=O)NC(=O)[C@H](CCCNC(=N)N)NC(=O)[C@H](CCC(N)=O)NC(=O)[C@@H]2CCCN2C(=O)[C@H](CCCCN)NC(=O)[C@@H](NC(=O)[C@H](Cc2c[nH]cn2)NC(=O)[C@H](CC(C)C)NC(=O)[C@H](CCCNC(=N)N)NC(=O)[C@H](CC(=O)O)NC(=O)CNC(C)=O)CSSC[C@@H](C(=O)N[C@@H](CCC(N)=O)C(=O)N[C@@H](Cc2c[nH]cn2)C(=O)N[C@@H](CC(C)C)C(=O)N[C@@H](CC(=O)O)C(=O)N2CCC[C@H]2C(=O)N[C@@H](CCC(=O)O)C(=O)NCC(=O)NCC(=O)NCC(N)=O)NC(=O)[C@H](CCCCN)NC1=O [DX-512] (Ac-GDRLHCKPQRQSPWMKCQHLDPEGGG-NH2; disulfide 6-17)	0.15	++++ (signifies very strong inhibition (˜100% inhibition at 100 μM; with IC50 0.15 μM))
CC(=O)NCC(=O)N[C@@H](CC(=O)O)C(=O)N[C@@H](CC(C)C)C(=O)N[C@@H](Cc1c[nH]cn1)C(=O)N[C@@H](C)C(=O)N[C@H]1CSSC[C@@H](C(=O)N[C@H](C(=O)N[C@@H](CC(C)C)C(=O)NCC(=O)N[C@@H](CC(=O)O)C(=O)N2CCC[C@H]2C(=O)N[C@@H](CCC(=O)O)C(=O)NCC(=O)NCC(=O)NCC(N)=O)[C@@H](C)O)NC(=O)[C@H](C)NC(=O)[C@H](Cc2c[nH]c3ccccc23)NC(=O)[C@H](Cc2c[nH]c3ccccc23)NC(=O)[C@@H]2CCCN2C(=O)[C@H](CC(=O)O)NC(=O)CNC(=O)[C@H](CCCNC(=N)N)NC(=O)[C@H](C(C)C)NC(=O)[C@@H]2CCCN2C(=O)[C@H](CCCNC(=N)N)NC1=O [DX-513] (Ac-GDLHACRPVRGDPWWACTLGDPEGGG-NH2; disulfide 6-17)	0.15	++++ (signifies very strong inhibition (˜100% inhibition at 100 μM; with IC50 0.15 μM))
CC[C@H](C)[C@H](NC(=O)[C@H](CCCNC(=N)N)NC(=O)[C@H](CO)NC(=O)CNC(C)=O)C(=O)NCC(=O)N[C@H]1CSSC[C@@H](C(=O)N[C@@H](CC(N)=O)C(=O)N[C@@H](Cc2c[nH]c3ccccc23)C(=O)N[C@@H](Cc2c[nH]c3ccccc23)C(=O)N[C@@H](C)C(=O)N2CCC[C@H]2C(=O)NCC(=O)N[C@@H](CCC(=O)O)C(=O)NCC(=O)NCC(=O)NCC(N)=O)NC(=O)[C@H](CCCNC(=N)N)NC(=O)[C@H](CO)NC(=O)[C@H](CC(=O)O)NC(=O)[C@H](CCCNC(=N)N)NC1=O [DX-524] (Ac-GSRIGCRDSRCNWWAPGEGGG-NH2; disulfide 6-11)	–	+++ (signifies strong inhibition (˜99% inhibition at ˜100 μM; with IC50 between 0.4-1 μM))
CC(=O)NCC(=O)N[C@@H](CO)C(=O)N[C@@H](CCCNC(=N)N)C(=O)NCC(=O)N[C@@H](Cc1ccccc1)C(=O)N[C@H]1CSSC[C@@H](C(=O)N[C@@H](CO)C(=O)N[C@@H](Cc2ccccc2)C(=O)N2CCC[C@H]2C(=O)N[C@@H](C)C(=O)N2CCC[C@H]2C(=O)NCC(=O)N[C@@H](CCC(=O)O)C(=O)NCC(=O)NCC(=O)NCC(N)=O)NC(=O)[C@H](CO)NC(=O)[C@H](CO)NC(=O)[C@H](CC(=O)O)NC(=O)[C@H](CCCNC(=N)N)NC1=O [DX-525] (Ac-GSRGFCRDSSCSFPAPGEGGG-NH2; disulfide 6-11)	–	+++ (signifies strong inhibition (˜99% inhibition at ˜100 μM; with IC50 between 0.4-1 μM))
CSCC[C@@H]1NC(=O)[C@H](CCSC)NC(=O)[C@@H]2CCCN2C(=O)[C@H](C)NC(=O)[C@H](Cc2c[nH]c3ccccc23)NC(=O)[C@H](Cc2c[nH]cn2)NC(=O)[C@@H](NC(=O)[C@@H](NC(=O)[C@H](CCC(=O)O)NC(=O)[C@H](Cc2c[nH]c3ccccc23)NC(=O)CNC(=O)[C@H](C)NC(C)=O)C(C)C)CSSC[C@@H](C(=O)N[C@@H](CCCCN)C(=O)N[C@@H](Cc2c[nH]cn2)C(=O)NCC(=O)NCC(=O)N[C@H](C(=O)N[C@@H](CCC(=O)O)C(=O)NCC(=O)NCC(=O)NCC(N)=O)[C@@H](C)O)NC1=O [DX-529] (Ac-AGWEVCHWAPMMCKHGGTEGGG-NH2; disulfide 6-13)	–	+++ (signifies strong inhibition (˜99% inhibition at ˜100 μM; with IC50 between 0.4-1 μM))
CC(=O)N[C@@H](C)C(=O)NCC(=O)N[C@@H](CO)C(=O)N[C@@H](CC(=O)O)C(=O)N[C@@H](Cc1c[nH]c2ccccc12)C(=O)N[C@H]1CSSC[C@@H](C(=O)N[C@@H](Cc2ccccc2)C(=O)N[C@@H](Cc2c[nH]cn2)C(=O)N[C@@H](CCC(N)=O)C(=O)NCC(=O)N[C@H](C(=O)N[C@@H](CCC(=O)O)C(=O)NCC(=O)NCC(=O)NCC(N)=O)[C@@H](C)O)NC(=O)[C@@H]2CCCN2C(=O)[C@H](CC(N)=O)NC(=O)[C@H](CC(N)=O)NC(=O)[C@H](Cc2c[nH]c3ccccc23)NC(=O)[C@H]([C@@H](C)O)NC(=O)CNC1=O [DX-531] (Ac-AGSDWCGTWNNPCFHQGTEGGG-NH2; disulfide 6-13)	–	+++ (signifies strong inhibition (˜99% inhibition at ˜100 μM; with IC50 between 0.4-1 μM))
CC(=O)NCC(=O)N[C@@H](CC(=O)O)C(=O)N[C@@H](CCCNC(=N)N)C(=O)N[C@@H](Cc1ccc(O)cc1)C(=O)N[C@@H](CC(C)C)C(=O)N[C@H]1CSSC[C@@H](C(=O)N[C@@H](CC(N)=O)C(=O)N[C@@H](Cc2c[nH]c3ccccc23)C(=O)N[C@@H](Cc2ccccc2)C(=O)N[C@@H](CC(=O)O)C(=O)N2CCC[C@H]2C(=O)N[C@@H](CCC(=O)O)C(=O)NCC(=O)NCC(=O)NCC(N)=O)NC(=O)[C@H](Cc2ccccc2)NC(=O)[C@H](CCCCN)NC(=O)[C@H](Cc2c[nH]c3ccccc23)NC(=O)[C@@H]2CCCN2C(=O)[C@H](CCCCN)NC(=O)[C@H](CC(=O)O)NC(=O)[C@H](CCCNC(=N)N)NC(=O)[C@H](CCC(N)=O)NC(=O)[C@@H]2CCCN2C(=O)[C@H](CC(C)C)NC1=O [DX-599] (Ac-GDRYLCLPQRDKPWKFCNWFDPEGGG-NH2; disulfide 6-17)	–	++++ (signifies very strong inhibition (˜100% inhibition at 100 μM; with IC50 0.15 μM))
CC(=O)NCC(=O)N[C@@H](CC(=O)O)C(=O)N[C@@H](Cc1ccc(O)cc1)C(=O)N[C@@H](CO)C(=O)N[C@@H](Cc1c[nH]cn1)C(=O)N[C@H]1CSSC[C@@H](C(=O)N[C@H](C(=O)N[C@@H](Cc2ccc(O)cc2)C(=O)N2CCC[C@H]2C(=O)N[C@@H](CC(=O)O)C(=O)N2CCC[C@H]2C(=O)N[C@@H](CCC(=O)O)C(=O)NCC(=O)NCC(=O)NCC(N)=O)[C@@H](C)O)NC(=O)[C@H](CCCCN)NC(=O)[C@H](Cc2c[nH]c3ccccc23)NC(=O)[C@H](Cc2c[nH]c3ccccc23)NC(=O)[C@@H]2CCCN2C(=O)[C@H](Cc2ccc(O)cc2)NC(=O)[C@H](Cc2ccc(O)cc2)NC(=O)[C@H](CCCNC(=N)N)NC(=O)[C@H](CC(C)C)NC(=O)[C@@H]2CCCN2C(=O)[C@H](CO)NC1=O [DX-600]	–	++++ (signifies very strong inhibition (˜100% inhibition at 100 μM; with IC50 0.15 μM))
CC[C@H](C)[C@@H]1NC(=O)[C@@H]2CCCN2C(=O)[C@H](CO)NC(=O)[C@@H](NC(=O)[C@@H](NC(=O)[C@H](Cc2ccccc2)NC(=O)CNC(=O)[C@H](CC(=O)O)NC(=O)CNC(C)=O)[C@@H](C)O)CSSC[C@@H](C(=O)N[C@@H](CC(=O)O)C(=O)N[C@@H](CC(C)C)C(=O)NCC(=O)N[C@@H](CC(=O)O)C(=O)N2CCC[C@H]2C(=O)N[C@@H](CCC(=O)O)C(=O)NCC(=O)NCC(=O)NCC(N)=O)NC(=O)[C@H](CCCNC(=N)N)NC(=O)[C@H](Cc2ccccc2)NC(=O)[C@H](Cc2c[nH]c3ccccc23)NC(=O)[C@@H]2CCCN2C(=O)[C@H](Cc2ccccc2)NC(=O)[C@H](CCSC)NC(=O)[C@H](CCCNC(=N)N)NC1=O [DX-601] (Ac-GDGFTCSPIRMFPWFRCDLGDPEGGG-NH2; disulfide 6-17)	–	++++ (signifies very strong inhibition (˜100% inhibition at 100 μM; with IC50 0.15 μM))
